Data set [1] relates to HeLa human cervical carcinoma cells. The data set is described as follows: In vitro viability study, trypan blue exclusion assay. In kind it is cell-based. The conditions noted are these: 0.5 mL solution added to 0.5 mL media, 15 seconds at room temperature, PBS control 86%. The method, then:
Low passage HeLa human cervical carcinoma cells (ATCC) were maintained with Eagles minimum essential medium (MEM, Gibeo, Carlsbad, California) supplemented with 10% (vol.) fetal bovine serum, 1% (vol.) penicillin and 1% (vol.) streptomycin. Cells were passaged twice per week and maintained at 37° C. and 5% CO2. Cells were cultured in two 12-well plates and grown to 80% confluence. Immediately before the experiment, cell media was removed and 0.5 mL of fresh media was added to each well. Next, each well was treated with 0.5 mL of either ethanol (200 proof, Koptec, King of Prussia, PA), 3% (w/w) ethyl cellulose (USP, Sigma Aldrich, Rockville, MD) in ethanol or PBS (control), added directly to the media. […] Tapani, E., et al., Toxicity of ethanol in low concentrations. Experimental evaluation in cell culture. Acta Radiol, 1996. 37(6): p. 923-6. The media containing the treatment solution was then removed, each well was rinsed twice with 1 mL of PBS, and given 1 mL of fresh MEM media. After all wells had been treated, each well was rinsed one time with 1 mL of PBS, given 250 μL of […] trypsin (Gibed, Carlsbad, CA), and returned to the incubator for 5 minutes. […] Viability was then assessed with a trypan blue exclusion assay (Gibco, Carlsbad, CA and a Countess Automated Cell Counter, Invitrogen, Carlsbad, CA). […]

Data set [2] deals with squamous cell carcinoma tumors in the hamster cheek pouch. The following applies: for Tumors with complete response (no visible lesion): day 7, manual high-volume injection, 13 tumors ablated; for Tumor volume as % of the initial volume (normalized tumor volume): day 7, manual intratumoral injection, average 284±350 μL pure ethanol, 13 tumors. The text has this:
The animal study protocol was approved by the Duke University Institutional Animal Care and Use Committee. For the manual pure ethanol ablation study, a total of 6 hamsters were used. For the rate- and viscosity-controlled study, a total of 8 hamsters were used. Tumors were induced through the topical application of dimethylbenz[a]anthracene (Sigma-Aldrich). Burns, R. A., et al., Tumor-localizing and photosensitizing properties of hematoporphyrin derivative in hamster buccal pouch carcinoma. Oral Surg Oral Med Oral Pathol, 1986. 61(4): p. 368-72. Three times a week the buccal mucosa of each cheek pouch was inverted then stretched from the mouth. An area of approximately […] was painted with a cotton swab dipped in the DMBA-mineral oil solution. The cheek pouches were painted until tumors of at least 100 uL in volume developed, at approximately 22 weeks.
Tumor volumes were measured before the injection and daily for 7 days after. […] They were only performed if the tumor volume had increased for two consecutive days after the 7 day observation period. Volumes were calculated by measuring the longest axis and the orthogonal axis and using the following formula: V=4/3π*(Rlong^2)*(Rorth). Complete response is defined as the total absence of any evidence of a tumor or raised lesion by visual examination.
For cell viability analysis, a one-Way ANOVA was used followed by a Tukey-HSD. For both phantom distribution volume and in vivo normalized tumor volume analysis, a non-parametric ANOVA was used (Kruskal-Wallis) followed by a non-parametric multiple comparisons test (Dunn's test). In comparing phantom distribution volume and in vivo normalized tumor volume, the Pearson's product moment correlation coefficient was calculated. All statistical analysis was performed in R. Normalized tumor volume was calculated by dividing by the volume at a given time point by the initial volume before treatment.

The test system is the same in data set [3]. The data set is described as follows: Injection rate- and viscosity-controlled ablation study, hamster cheek pouch model. The data set is classed as in vivo. The following applies: day 7, 50 μL injected, mean over injection rates 0.1, 1.0, 10 and 100 mL/hr. The method, then: Three percent ethyl cellulose (Sigma Aldrich)-ethanol solutions (weight by weight) were prepared by stirring at room temperature. Three percent was chosen as higher viscosities required a lockable needle to stay attached to the syringe at high injection rates. Two drops of blue food dye were added for every 1 mL of ethanol and ethyl cellulose-ethanol solutions to enhance contrast. 50 μL of either solution was injected at a rate of 0.1, 0.5, 1.0, 5.0, 10 or 35 mL/hr as controlled by a syringe pump (NE-300 Just Infusion Syringe Pump). Manual injections were approximately 100 mL/hr. A 1 mL syringe and 27 G needles connected with microtubing (Tygon Microtube Tubing, 0.25 mmID) were used for injections. On the outflow-end of the catheter tube a 27 G needle was snapped off the base to fit into the tubing.
Oral Surg Oral Med Oral Pathol, 1986. 61(4): p. 368-72. […] The cheek pouches were painted until tumors of at least 100 uL in volume developed, at approximately 22 weeks.
The average tumor volume was 195±140 μL and 50 μL of solution (either ethanol or 3% ethyl cellulose-ethanol) was injected. Solutions were injected with the syringe pump at 0.1, 1.0 or 10 mL/hr or injected manually. Tumor volume was measured before injections and at 1, 2 4 and 7 days following the injection. […] 36 total ablations were performed on 8 animals. […]

Each structure is given as a SMILES string. Where “and” joins values, the source holds several entries; their conditions need not be identical. Equal values may be shown once. Read-outs that look alike come from different tables or passages of the source.

As to `CCO` [ethanol], the “Viability (live cell count/total cell count)” value in data set [1] turned out to be 19%. Also, in data set [2], the “Tumors with complete response (no visible lesion)” value is 4 of 13 and the “Tumor volume as % of the initial volume (normalized tumor volume)” value was 30%. In addition, in data set [2] (listed as pure ethanol), the “Tumors with complete response (no visible lesion)” value is 4 and 4 out of 13 and 4/13; the “Tumor volume as % of the initial volume (normalized tumor volume)” value came to 30±33%. The Normalized tumor volume in data set [3] came out at 79±79%.
